The subject of experiment [1] is RA synovial cells. Put plainly: PDTC inhibition of IL-1 and GPRP induction of ICAM-1 (ELISA). The format is cell-based, human. The note with it: PDTC pre-incubation 1.5 hours, IL-1 or GPRP overnight, ± SD, triplicate. The source says: (§1) NF-kappaB activation is already well known to affect a broad array of immediate-early gene products, such as TNF, interleukins, chemokines and colony stimulating factors; genes that are tightly regulated during inflammation and wound healing. […] PDTC is an anti-oxidant that prevents NF-kappaB activation and its translocation to the nucleus (Reference 26). […] [table]
In general terms: ELISA stands for enzyme-linked immunosorbent assay.

The subject of experiment [2] is OA synovial cells. The experiment is described as above. In kind it is cell-based, human. As to conditions: PDTC pre-incubation 1.5 hours, IL-1 or GPRP overnight, ± SD, triplicate.
Text: as §1

As for Gly-Pro-Arg-Pro [GPRP], the “ICAM-1 O.D. 492” value is 1.83 ± .08 in experiment [1] (RA line 5), 1.67 ± .06 in experiment [1] (RA line 6), 1.66 ± .05 in experiment [2] (OA line 2) and 1.30 ± .09 in experiment [2] (OA line 8).

The record behind these values is patent US6908899B2, “Pro-inflammatory fibrinopeptide” (U.S. Dept. of Veterans Affairs, priority 2001, dated 2005).
